Patent publication US5733924A, “DC 107 derivatives and treatment methods” (Kyowa Hakko Kogyo Co., Ltd., priority 1995, dated 1998)
Converted amounts (≈) assume the structure as drawn. Where two headings read alike, the source gives them in different places.

Tests used:
Escherichia coli ATCC 26 = assay: Antibacterial activity, agar dilution method (MIC); assay type: cell-based
Source text: (§1) The antibacterial activity as determined by the agar dilution method using a medium prepared by dissolving 3 g of Bacto-Tryptone (a product of Difco Laboratories), 3 g of a meat extract, 1 g of an yeast extract, 1 g of glucose and 16 g of agar in one liter of water (pH 7).
EC: Escherichia coli ATCC 26

[1] = system: Bacillus subtilis No. 10707; assay: Antibacterial activity, agar dilution method (MIC); assay type: cell-based
Source text: as §1
BS: Bacillus subtilis No. 10707

P388 Leukemia = assay: Antitumor activity against P388 leukemia in mice (increased life span); assay type: in vivo, CDF1 mice; settings: Mus musculus, P388, ip, 720 h
Protocol: Ascites were collected from the abdominal cavity of P388 ascites tumor-bearing cancer mice (DBA/2) on the 7th day after transplantation. A number of P388 cells in the ascites was counted, and a tumor cell floating liquid of 5×10^6 cells/ml was prepared using a physiological saline solution. Then, 0.2 ml of the solution containing 1×10^6 cells was transplanted into the abdominal cavity of CDF1 mice having a body weight of from 20 to 25 g.
The effect of the test compound was determined in terms of the ratio of average survival days of the group administered with the test compound to average survival days of the control group (non-medicated group) (i.e., an increased life span, ILS%).

[2] = system: Enterococcus faecium ATCC 10541; assay: Antibacterial activity, agar dilution method (MIC); assay type: cell-based
Source text: as §1
EF: Enterococcus faecium ATCC 10541

[3] = system: Staphylococcus aureus ATCC 6538P; assay: Antibacterial activity, agar dilution method (MIC); assay type: cell-based; settings: ATCC6538P
Source text: as §1
SA: Staphylococcus aureus ATCC 6538P

[4] = system: Klebsiella pneumoniae ATCC 10031; assay: Antibacterial activity, agar dilution method (MIC); assay type: cell-based
Source text: as §1
KP: Klebsiella pneumoniae ATCC 10031

[5] = Japanese Published Unexamined Patent Application No. 112988/89; cited from earlier work
various bacteria = settings: Japanese Published Unexamined Patent Application No. 112988/89; cited from earlier work
[6] = ATCC26, EC: Escherichia coli ATCC 26, pH 7, read-out: MIC (minimum growth inhibitory concentration)
[7] = BS: Bacillus subtilis No. 10707, pH 7, read-out: MIC (minimum growth inhibitory concentration)
[8] = single i.p. 24 hours after transplantation, CDF1 mice, 30 days observation
[9] = ATCC10541, EF: Enterococcus faecium ATCC 10541, pH 7, read-out: MIC (minimum growth inhibitory concentration)
[10] = SA: Staphylococcus aureus ATCC 6538P, agar dilution, pH 7, read-out: MIC (minimum growth inhibitory concentration)
[11] = ATCC10031, KP: Klebsiella pneumoniae ATCC 10031, agar dilution, pH 7, read-out: MIC (minimum growth inhibitory concentration)
[12] = single i.p. 24 hours after transplantation, CDF1 mice, 30 days observation, read-out: ILS (increased life span)
[13] = 2.0 mg/kg, single i.p. 24 hours after transplantation, CDF1 mice, 30 days observation, read-out: ILS (increased life span)
[14] = 4.0 mg/kg, single i.p. 24 hours after transplantation, CDF1 mice, 30 days observation, read-out: ILS (increased life span)
[15] = read-out: ILS (increased life span)
[16] = Escherichia coli, ATCC26, pH 7, read-out: MIC (minimum growth inhibitory concentration), EC: Escherichia coli ATCC 26
[17] = Bacillus subtilis, NO.10707, pH 7, read-out: MIC (minimum growth inhibitory concentration), BS: Bacillus subtilis No. 10707
[18] = Enterococcus faecium, ATCC10541, pH 7, read-out: MIC (minimum growth inhibitory concentration), EF: Enterococcus faecium ATCC 10541
[19] = Staphylococcus aureus, pH 7, read-out: MIC (minimum growth inhibitory concentration)
[20] = Klebsiella pneumoniae, ATCC10031, pH 7, read-out: MIC (minimum growth inhibitory concentration)

| Structure (SMILES) | MIC (Escherichia coli ATCC 26; [6]) | MIC [1, 7] | MIC [2, 9] | MIC [3, 10] | MIC [4, 11] | other results |
| --- | --- | --- | --- | --- | --- | --- |
| C/C1=C\C(OC(=O)CN(C)C(=O)CCNC(=O)OCc2ccccc2)C(=O)/C=C/C=C\c2csc(n2)C(C)NC(=O)CC2(CC1)[S+]([O-])SC(=O)C2(C)O (centres unmarked) [Compound 117] | 0.46 µg/mL (≈ 0.585 µM) | 0.13 µg/mL (≈ 0.165 µM) | 0.23 µg/mL (≈ 0.292 µM) | 0.13 µg/mL (≈ 0.165 µM) | 0.057 µg/mL (≈ 0.0724 µM) | ILS at 16 mg/kg (P388 Leukemia; [8]): 73% |
| C/C1=C\C(OC(=O)CNC=O)C(=O)/C=C/C=C\c2csc(n2)C(C)NC(=O)CC2(CC1)[S+]([O-])SC(=O)C2(C)O (centres unmarked) [Compound 99] | 2.6 µg/mL (≈ 4.36 µM) | 0.041 µg/mL (≈ 0.0688 µM) | 0.041 µg/mL (≈ 0.0688 µM) | 0.041 µg/mL (≈ 0.0688 µM) | 0.041 µg/mL (≈ 0.0688 µM) | ILS at 8 mg/kg (P388 Leukemia; [12]): 56% |
| COC1(OC2C=C(C)CCC3(C(C)(O)C(=O)SCc4oc(=O)oc4C)CC(=O)N(C(C)c4nc(cs4)C=CC=CC2=O)[S+]3[O-])CCOCC1 (centres unmarked) [Compound 122] | 42 µg/mL (≈ 57 µM) | 0.16 µg/mL (≈ 0.217 µM) | 1.3 µg/mL (≈ 1.76 µM) | 0.65 µg/mL (≈ 0.882 µM) | 2.6 µg/mL (≈ 3.53 µM) | ILS at 2 mg/kg (P388 Leukemia; [13]): 52% |
| C/C1=C\C(OC(=O)CNC(=O)CCNC(=O)OCc2ccccc2)C(=O)/C=C/C=C\c2csc(n2)C(C)NC(=O)CC2(CC1)[S+]([O-])SC(=O)C2(C)O (centres unmarked) [Compound 111] | 2.6 µg/mL (≈ 3.36 µM) | 0.081 µg/mL (≈ 0.105 µM) | 0.16 µg/mL (≈ 0.207 µM) | 0.33 µg/mL (≈ 0.427 µM) | 0.041 µg/mL (≈ 0.053 µM) | ILS at 16 mg/kg (P388 Leukemia; [8]): 76% |
| C/C1=C\C(OC(=O)CNC(=O)CNC(=O)OCc2ccccc2)C(=O)/C=C/C=C\c2csc(n2)C(C)NC(=O)CC2(CC1)[S+]([O-])SC(=O)C2(C)O (centres unmarked) [Compound 108] | 21 µg/mL (≈ 27.7 µM) | 0.041 µg/mL (≈ 0.054 µM) | 0.081 µg/mL (≈ 0.107 µM) | 0.16 µg/mL (≈ 0.211 µM) | 0.33 µg/mL (≈ 0.435 µM) | ILS at 4 mg/kg (P388 Leukemia; [14]): 72% |
| CCC(=O)OC1/C=C(\C)CCC2(CC(=O)NC(C)c3nc(cs3)/C=C\C=C\C1=O)[S+]([O-])SC(=O)C2(C)O (centres unmarked) [Compound 2] | 1.3 µg/mL (≈ 2.29 µM) | 0.33 µg/mL (≈ 0.582 µM) | 0.081 µg/mL (≈ 0.143 µM) | 0.041 µg/mL (≈ 0.0723 µM) | 0.65 µg/mL (≈ 1.15 µM) | ILS at 2 mg/kg (P388 Leukemia; [13]): 42% |
| CC1=CC(OC(=O)CNC(=O)CCNC(=O)OC(C)(C)C)C(=O)C=CC=Cc2csc(n2)C(C)N2C(=O)CC(C(C)(O)C(=O)SCc3oc(=O)oc3C)(CC1)[S+]2[O-] (centres unmarked) [Compound 170] | 75 µg/mL (≈ 88.1 µM) | 2.3 µg/mL (≈ 2.7 µM) | 2.3 µg/mL (≈ 2.7 µM) | 2.3 µg/mL (≈ 2.7 µM) | 2.3 µg/mL (≈ 2.7 µM) | ILS at 8 mg/kg (P388 Leukemia; [12]): 70% |
| C/C1=C\C(OC(=O)C2CCCCC2)C(=O)/C=C/C=C\c2csc(n2)C(C)NC(=O)CC2(CC1)[S+]([O-])SC(=O)C2(C)O (centres unmarked) [Compound 6] | 3.7 µg/mL (≈ 5.96 µM) | 0.028 µg/mL (≈ 0.0451 µM) | 0.91 µg/mL (≈ 1.47 µM) | 0.91 µg/mL (≈ 1.47 µM) | 7.3 µg/mL (≈ 11.8 µM) | ILS at 4 mg/kg (P388 Leukemia; [15]): 49% |
| CC1=CC(OC(=O)c2ccccn2)C(=O)C=CC=Cc2csc(n2)C(C)N2C(=O)CC(C(C)(O)C(=O)SCc3oc(=O)oc3C)(CC1)[S+]2[O-] (centres unmarked) [Compound 143] |  |  |  |  |  | MIC (Escherichia coli ATCC 26; [16]): 5.2 µg/mL (≈ 7.14 µM); MIC [1, 17]: 0.16 µg/mL (≈ 0.22 µM); ILS at 0.5 mg/kg (P388 Leukemia; [15]): 49%; MIC [2, 18]: 0.33 µg/mL (≈ 0.453 µM); MIC [3, 19]: 0.16 µg/mL (≈ 0.22 µM); MIC [4, 20]: 0.65 µg/mL (≈ 0.893 µM) |
| C/C1=C\C(OC(=O)CNC(=O)CNC(=O)c2ccccc2)C(=O)/C=C/C=C\c2csc(n2)C(C)NC(=O)CC2(CC1)[S+]([O-])SC(=O)C2(C)O (centres unmarked) [Compound 109] | 3.2 µg/mL (≈ 4.39 µM) | 0.35 µg/mL (≈ 0.48 µM) | 0.081 µg/mL (≈ 0.111 µM) | 0.081 µg/mL (≈ 0.111 µM) | 0.041 µg/mL (≈ 0.0563 µM) | ILS at 8 mg/kg (P388 Leukemia; [12]): 78% |
| C/C1=C\C(OC(=O)CNC(=O)CN(C)C(=O)OCc2ccccc2)C(=O)/C=C/C=C\c2csc(n2)C(C)NC(=O)CC2(CC1)[S+]([O-])SC(=O)C2(C)O (centres unmarked) [Compound 114] | 11 µg/mL (≈ 14.2 µM) | 0.037 µg/mL (≈ 0.0479 µM) | 0.037 µg/mL (≈ 0.0479 µM) | 0.037 µg/mL (≈ 0.0479 µM) | 1.2 µg/mL (≈ 1.55 µM) | ILS at 4 mg/kg (P388 Leukemia; [14]): 70% |
| C/C1=C\C(OC(=O)[C@H](C)NC(=O)OCc2ccccc2)C(=O)/C=C/C=C\c2csc(n2)C(C)NC(=O)CC2(CC1)[S+]([O-])SC(=O)C2(C)O (some centres unmarked) [Compound 103] | 10 µg/mL (≈ 14 µM) | 0.041 µg/mL (≈ 0.0573 µM) | 0.081 µg/mL (≈ 0.113 µM) | 42 µg/mL (≈ 58.7 µM) | 1.3 µg/mL (≈ 1.82 µM) | ILS at 4 mg/kg (P388 Leukemia; [14]): 52% |
| CC(=O)NCC(=O)OC1/C=C(\C)CCC2(CC(=O)NC(C)c3nc(cs3)/C=C\C=C\C1=O)[S+]([O-])SC(=O)C2(C)O (centres unmarked) [Compound 100] |  |  |  |  |  | MIC (Escherichia coli ATCC 26; [16]): 2.6 µg/mL (≈ 4.26 µM); MIC [1, 17]: 0.081 µg/mL (≈ 0.133 µM); ILS at 4 mg/kg (P388 Leukemia; [15]): 66%; MIC [2, 18]: 0.041 µg/mL (≈ 0.0672 µM); MIC [3, 19]: 0.041 µg/mL (≈ 0.0672 µM); MIC [4, 20]: 0.041 µg/mL (≈ 0.0672 µM) |
| C/C1=C\C(OC2CCCCO2)C(=O)/C=C/C=C\c2csc(n2)C(C)N2C(=O)CC(C(C)(O)C(=O)SCc3oc(=O)oc3C)(CC1)[S+]2[O-] (single isomer, unassigned) [Compound 63] |  |  |  |  |  | MIC (minimum growth inhibitory concentration) (Escherichia coli ATCC 26; EC: Escherichia coli ATCC 26, pH 7): 21 µg/mL (≈ 29.7 µM); MIC [1, 17]: 0.081 µg/mL (≈ 0.115 µM); ILS at 2 mg/kg (P388 Leukemia; [15]): 48%; MIC [2, 18]: 0.65 µg/mL (≈ 0.92 µM); MIC [3, 19]: 0.65 µg/mL (≈ 0.92 µM); MIC [4, 20]: 5.2 µg/mL (≈ 7.36 µM) |
| C/C1=C\C(O)C(=O)/C=C/C=C\c2csc(n2)C(C)NC(=O)CC2(CC1)[S+]([O-])SC(=O)C2(C)O (centres unmarked) [DC107] |  |  |  |  |  | antitumor activity [5]: also an antitumor activity; antibacterial activity (various bacteria): exhibits an antibacterial activity against various bacteria |
| C/C1=C\C(OC(=O)CNC(=O)OCc2ccccc2)C(=O)/C=C/C=C\c2csc(n2)C(C)NC(=O)CC2(CC1)[S+]([O-])SC(=O)C2(C)O (centres unmarked) [Compound 97] | 0.65 µg/mL (≈ 0.926 µM) | 0.33 µg/mL (≈ 0.47 µM) | 0.041 µg/mL (≈ 0.0584 µM) | 0.041 µg/mL (≈ 0.0584 µM) | 0.81 µg/mL (≈ 1.15 µM) | ILS at 8 mg/kg (P388 Leukemia; [12]): 54% |
| C/C1=C\C(OC(=O)CCCNC(=O)OCc2ccccc2)C(=O)/C=C/C=C\c2csc(n2)C(C)NC(=O)CC2(CC1)[S+]([O-])SC(=O)C2(C)O (centres unmarked) [Compound 106] | 10 µg/mL (≈ 13.7 µM) | 0.041 µg/mL (≈ 0.0562 µM) | 0.16 µg/mL (≈ 0.219 µM) | 0.16 µg/mL (≈ 0.219 µM) | 1.3 µg/mL (≈ 1.78 µM) | ILS at 16 mg/kg (P388 Leukemia; [8]): 62% |
| CCOCOC1/C=C(\C)CCC2(C(C)(O)C(=O)SCc3oc(=O)oc3C)CC(=O)N(C(C)c3nc(cs3)/C=C\C=C\C1=O)[S+]2[O-] (centres unmarked) [Compound 59] | 21 µg/mL (≈ 30.8 µM) | 0.65 µg/mL (≈ 0.955 µM) | 1.3 µg/mL (≈ 1.91 µM) | 1.3 µg/mL (≈ 1.91 µM) | 5.2 µg/mL (≈ 7.64 µM) | ILS at 2 mg/kg (P388 Leukemia; [13]): 47% |
